According to US4327093A, “3,7-Disubstituted-2 or 3-cephem-4-carboxylic acid compounds” (Fujisawa Pharmaceutical Co., Ltd., priority 1978, dated 1982):
Values after ≈ are worked out from the molar mass of the structure shown.

How the values were obtained:
[1] = system: Proteus mirabilis 18; experiment: Minimal inhibitory concentration (MIC) by agar streak, HI-agar, 37° C., 20 hours; format: cell-based; settings: 10^6 viable cells per ml, 37° C. for 20 hours
Description: (§1) One loopful of an overnight culture of each test strain in Trypticase-soy broth (10^6 viable cells per ml.) was streaked on heart infusion agar (HI-agar) containing graded concentrations of antibiotics, and the minimal inhibitory concentration (MIC) was expressed in terms of μg/ml after incubation at 37° C. for 20 hours.

[2] = system: Klebsiella pneumoniae 20; experiment: as above; format: cell-based; settings: 10^6 viable cells per ml, 37° C. for 20 hours
Description: as §1

| MIC [1] [µg/mL] | MIC [2] [µg/mL] | SMILES |
| --- | --- | --- |
| 0.05 (≈ 0.0927 µM) | 0.1 (≈ 0.185 µM) | CO/N=C(\C(=O)NC1C(=O)N2C(C(=O)O)=C(COC(=O)N3CCN(C)CC3)CSC12)c1csc(N)n1 (stereo not shown) [(1)] |
| 0.2 (≈ 0.37 µM) | 0.05 (≈ 0.0925 µM) | CO/N=C(\C(=O)NC1C(=O)N2C(C(=O)O)=C(COC(=O)N3CCN(C)CC3)CSC12)c1nsc(N)n1 (stereo not shown) [(2)] |
